Where two headings read alike, the source gives them in different places.
Experiments:
[1] = Superoxide scavenging activity (hypoxanthine-xanthine oxidase, DMPO spin trapping, ESR); type: biochemical; conditions: pH 7.3, read-out: O2^- scavenging activity IC50
Description: Activity of PQQ esters to scavenge superoxide (O2^-) produced in the system of hypoxanthinexanthine oxidase was examined by spin trapping method [using 5,5-dimethyl-l-pyrroline-N-oxide (hereinafter referred to as "DMPO") as a spin trapping agent] where electron spin resonance (hereinafter referred to as "ESR") was used.
Hypoxanthine+2O2 →2O2^- +uric acid (xanthine oxidase)
The following reagents were successively put in a test tube and stirred after addition of the hypoxanthine 7 to initiate the reaction and the reaction mixture was transferred to a quartz cell used for measurement of ESR.
Superoxide scavenging activity of OPQ and esters thereof was examined in the same manner as in Example 1.

[2] = Hydroxy radical scavenging activity (H2O2-(Fe^2+-DTPA), DMPO spin trapping, ESR); type: biochemical; conditions: pH 7.3, read-out: .OH scavenging activity IC50
Description: Activity of PQQ esters to scavenge hydroxy radical (·OH) produced in the system of H2 O2 --(Fe^2+ -DTPA) was examined by spin trapping method [using 5,5-dimethyl-1-pyrroline-N-oxide (hereinafter referred to as "DMPO") as a spin trapping agent] where electron spin resonance (hereinafter referred to as "ESR") was used. DTPA means diethylenetriamine-pentaacetic acid.
H2 O2 +Fe^2 -DTPA complex→·OH+OH^-
The following reagents were successively put in a test tube and stirred after addition of H2 O2 6 to initiate the reaction and the reaction mixture was transferred to a quartz cell used for measurement of ESR.
Hydroxy radical scavenging activity of OPQ and esters thereof was examined in the same manner as in Example 3.

[3] = system: Hydrocortisone-Induced Cataract of Hen's Eggs; test: Effect on hydrocortisone-induced cataract of hen's eggs; type: in vivo, white leghorn (hen's eggs); conditions: 1 μmole at 3, 10 and 20 h after hydrocortisone; lens at 48 h
Description: Fertilized eggs of white leghorn were incubated in an incubator at a temperature of 37° C. and 70% in humidity. The day on which the incubation was started was taken to be one day old. […] eggs of 15 day old were prepared and divided into 7 groups, each of which included 5 eggs (A-G). A small hole was bored through the eggshell above air chamber of the eggs of groups B-G and 0.25 μmole (as 0.2 ml solution) of hydrocortisone sodium succinate was administered into the air chamber through the hole and then, the hole was sealed with a cellophane tape. To The eggs of groups C-G was administered 1 μmole of following compounds after 3, 10 and 20 hours from administration of hydrocortisone sodium succinate. That is, 0.2 ml of a solution of PQQ·2Na in distilled water was administered to the eggs of group C, 0.2 ml of a suspension of PQQ trimethyl ester in 1% Tween 80 solution was administered to the eggs of group D, 0.2 ml of a suspension of triallyl ester in 1% Tween 80 solution was administered to the eggs of group E, 0.2 ml of a solution of OPQ in 10 mM NaCO3 solution was administered to the eggs of group F, and 0.2 ml of a solution of methyl OPQ in 10 mM NaCO3 solution was administered to the eggs of group G.
Crystal lens was taken out after 48 hours from administration of hydrocortisone sodium succinate and degree of cataract was judged by the criteria according to the Nishigori et al method (Nishigori et al, "Investigative Ophthalmology & Visual Science", Vol. 25, page 1051, 1984).
5 The whole nucleus was hazed in white.

male mice SPF-ICR = test: Acute toxicity test (1), intraperitoneal; conditions: mouse, in vivo, ip
Description: To male mice SPF-ICR five weeks old (supplied by Japan Charles River Co.) were intraperitoneally administered PQQ·2Na, PQQ trimethyl ester, PQQ triallyl ester, OPQ, 1-methylpropyl OPQ, 2-methylthioethyl OPQ and benzyl OPQ at dosages of 40, 80, 160 and 200 mg per kg of body weight of mouce, respectively and they were bred for 14 days at 25° C. One group consisted of 8 mice. For administration, PQQ·2Na and OPQ and esters thereof were dissolved in physiological saline and PQQ trimethyl ester and PQQ triallyl ester were suspended in 1% Tween 80-containing physiological saline, respectively.

mice [4] = conditions: mouse, in vivo, ip
Description: One group consisted of 8 mice. For administration, PQQ·2Na and OPQ and esters thereof were dissolved in physiological saline and PQQ trimethyl ester and PQQ triallyl ester were suspended in 1% Tween 80-containing physiological saline, respectively.
PQQ·2Na, PQQ trimethyl ester, PQQ triallyl ester and OPQ and esters thereof were intraperitoneally administered to mice and they were bred in the same manner as in the above acute toxicity test. Urine of the mice was taken every day and glucose concentration was measured using clinical examination reagent (trademark: […] 2 manufactured by Miles.Sankyo Co.).

mice [5] = test: Kidney Toxicity Determined by Blood Examination (1); type: in vivo
Description: After lapse of one day from the administration, the mice were fasted (with feeding only water) and then after 18 hours, blood was collected and serum was obtained therefrom. Glucose, urea nitrogen and creatinine in the serum were examined by clinical examination reagent (trademark: FUJI DRYCHEMSLIDE manufactured by Fuji Photo Film Co., Ltd.).

[6] = not told; for Membrane permeation constant: bovine, 960 min
Description: Permeability of various compounds through capsule of crystal bovine lens was examined in accordance with the method mentioned in "Crystal Lens and Biochemical Mechanism thereof" (pages 436-440) edited by Shuzo Iwata (Medical Aoi Publisher). Each compound dissolved in 10 mM HEPES buffer (containing 1% DMSO in the case of PQQ triesters) was put in an apparatus for measurement of membrane permeation constant and left to stand for 16 hours at 35° C. and then amount of the compound which migrated was measured by ultraviolet absorption (243 nm for PQQ·2Na and 255 nm for PQQ esters) to obtain membrane permeation constant.

O=C(O)c1cc(C(=O)O)c2c(n1)c1nc(CO)oc1c1cc(C(=O)O)[nH]c12 [Hydroxymethyl OPQ, hydroxymethyl OPQ (R=CH2 OH)]
IC50 ([1]; Example 2, Table 7): 3.52 µM
IC50 ([2]; Example 4, Table 9): 305 µM

O=C(O)c1cc(C(=O)O)c2c(n1)c1nc(Cc3ccc(O)cc3)oc1c1cc(C(=O)O)[nH]c12 [4-Hydroxyphenylmethyl OPQ, 4-hydroxyphenylmethyl OPQ]
IC50 ([1]; Example 2, Table 7): 4.12 µM
IC50 ([2]; Example 4, Table 9): 314 µM

O=C(O)CCc1nc2c3nc(C(=O)O)cc(C(=O)O)c3c3[nH]c(C(=O)O)cc3c2o1 [2-Carboxyethyl OPQ, 2-carboxyethyl OPQ (R=CH2 CH2 CO2 H)]
IC50 ([1]; Example 2, Table 7): 2.96 µM
IC50 ([2]; Example 4, Table 9): 110 µM

Cc1nc2c3nc(C(=O)O)cc(C(=O)O)c3c3[nH]c(C(=O)O)cc3c2o1 [Methyl OPQ, methyl OPQ (R=CH3)]
IC50 ([1]; Example 2, Table 7): 1.64 µM
IC50 ([2]; Example 4, Table 9): 153 µM
Judgement 1 (No haze was seen in crystal lens), eggs [3]: 1/5
Judgement 3 (Clear ring of white haze was seen in crystal lens), eggs [3]: 2/5
Judgement 4 ~ 5 (white haze of pinhole size in nucleus ~ whole nucleus hazed in white), eggs [3]: 2/5

O=C(O)c1cc(C(=O)O)c2c(n1)C(=O)C(=O)c1cc(C(=O)O)[nH]c1-2 [PQQ.2Na, reference compound]
mice died (male mice SPF-ICR; 40 mg/kg): No mice died
mice died (male mice SPF-ICR; 80 mg/kg): five mice died
mice died (male mice SPF-ICR; 160 mg/kg): eight mice all died
mice died (male mice SPF-ICR; 200 mg/kg): eight mice all died
glucose detected in urine (mice [4]): glucose was detected in urine
glucose in urine (mice [4]; 20 mg/kg): -
glucose in urine (mice [4]; 40 mg/kg): -
glucose in urine (mice [4]; 80 mg/kg): -
contents of glucose, urea nitrogen and creatinine in serum (mice [5]; mouse, in vivo): Sharp reduction of glucose and much increase of urea nitrogen and creatinine
kidney toxicity (mice [5]; mouse, in vivo): kidney toxicity was recognized
Creatinine (mice [5]; mouse, in vivo, 20 mg/kg): 0.8 ± 0.1 mg/dL
Glucose (mice [5]; mouse, in vivo, 20 mg/kg): 70 ± 13 mg/dL
Urea nitrogen (mice [5]; mouse, in vivo, 20 mg/kg): 25 ± 3 mg/dL
Creatinine (mice [5]; mouse, in vivo, 40 mg/kg): 2.3 ± 1.0 mg/dL
Glucose (mice [5]; mouse, in vivo, 40 mg/kg): 60 ± 12 mg/dL
Urea nitrogen (mice [5]; mouse, in vivo, 40 mg/kg): 110 ± 38 mg/dL
Creatinine (mice [5]; mouse, in vivo, 80 mg/kg): 3.4 ± 0.4 mg/dL
Glucose (mice [5]; mouse, in vivo, 80 mg/kg): 57 ± 15 mg/dL
Urea nitrogen (mice [5]; mouse, in vivo, 80 mg/kg): 130 ± 18 mg/dL
Creatinine (mice [5]; mouse, in vivo, 160 mg/kg): 4.1 ± 0.2 mg/dL
Glucose (mice [5]; mouse, in vivo, 160 mg/kg): 35 ± 7 mg/dL
Urea nitrogen (mice [5]; mouse, in vivo, 160 mg/kg): 139 ± 3 mg/dL
IC50 ([1]; Example 1, Table 6): 0.0383 µM
IC50 ([2]; Example 3, Table 8): 64 µM
Judgement 1 (No haze was seen in crystal lens), eggs [3]: 1/5
Judgement 2 (Slight opaque ring was seen in crystal lens), eggs [3]: 2/5
Judgement 4 ~ 5 (white haze of pinhole size in nucleus ~ whole nucleus hazed in white), eggs [3]: 2/5
Membrane permeation constant [6]: 0.68 ± 0.36 10 ^-7 cm^2 · sec^-1

CCC(C)c1nc2c3nc(C(=O)O)cc(C(=O)O)c3c3[nH]c(C(=O)O)cc3c2o1 (stereo not shown) [1-Methylpropyl OPQ, 1-methylpropyl OPQ (R=CH(CH3)CH2 CH3)]
glucose in urine (mice [4]; 20 mg/kg): -
glucose in urine (mice [4]; 40 mg/kg): -
glucose in urine (mice [4]; 80 mg/kg): -
glucose in urine (mice [4]; 160 mg/kg): -
glucose in urine (mice [4]; 200 mg/kg): -
Creatinine (mice [5]; mouse serum, 40 mg/kg): 0.80 ± 0.08 mg/dL
Glucose (mice [5]; mouse serum, 40 mg/kg): 87 ± 20 mg/dL
Urea nitrogen (mice [5]; mouse serum, 40 mg/kg): 26 ± 1 mg/dL
Creatinine (mice [5]; mouse serum, 80 mg/kg): 0.78 ± 0.04 mg/dL
Glucose (mice [5]; mouse serum, 80 mg/kg): 104 ± 19 mg/dL
Urea nitrogen (mice [5]; mouse serum, 80 mg/kg): 22 ± 3 mg/dL
Creatinine (mice [5]; mouse serum, 160 mg/kg): 0.78 ± 0.04 mg/dL
Glucose (mice [5]; mouse serum, 160 mg/kg): 87 ± 22 mg/dL
Urea nitrogen (mice [5]; mouse serum, 160 mg/kg): 27 ± 4 mg/dL
Creatinine (mice [5]; mouse serum, 200 mg/kg): 0.83 ± 0.17 mg/dL
Glucose (mice [5]; mouse serum, 200 mg/kg): 66 ± 11 mg/dL
Urea nitrogen (mice [5]; mouse serum, 200 mg/kg): 27 ± 6 mg/dL
IC50 ([1]; Example 2, Table 7): 3.53 µM
IC50 ([2]; Example 4, Table 9): 252 µM

CCOC(=O)c1cc(C(=O)OCC)c2c(n1)C(=O)C(=O)c1cc(C(=O)OCC)[nH]c1-2 [PQQ triethyl ester]
Membrane permeation constant [6]: 1.22 ± 0.37 10 ^-7 cm^2 · sec^-1
membrane permeation constant relative to that of PQQ.2Na [6]: about twice

C=CCOC(=O)c1cc(C(=O)OCC=C)c2c(n1)c1ncoc1c1cc(C(=O)OCC=C)[nH]c12 [OPQ triallyl ester]
IC50 ([1]; Example 2, Table 7): 2.39 µM

Source: patent US5369112A, “Method of treating cataracts caused by active oxygen” (Mitsubishi Gas Chemical Company, Inc., priority 1991, dated 1994)
